Laboratory results published in patent US20240425464A1, “Substituted Monohydrazides as Potent Antifungal Agents” (University of Kentucky Research Foundation, priority 2023, published 2024).
≈ marks a conversion by molar mass, not a printed value.

Columns and labels:
[1] = tested on: panel of ten C. auris strains (AR Bank #381-390); test: MIC determination, summary over the C. auris panel; type: cell-based, Candida auris; details: Candidozyma auris; against all ten C. auris strains tested (AR Bank #381-390)
Description: (§1) The antifungal agent amphotericin B (AmB) was purchased from VWR (Radnor PA, USA). AmB was dissolved in DMSO at a final concentration of 5 mg/mL and was stored at −20° C., protected from light. Candida albicans American Type Culture Collection (ATCC) 10231 (strain A), C. albicans ATCC 64124 (B), and C. albicans ATCC MYA-2876 (C) were obtained from Utah State University. C. albicans ATCC 90819 (D), C. albicans ATCC MYA-2310 (E), C. albicans ATCC MYA-1237 (F), C. albicans ATCC MYA-1003 (G), Candida glabrata ATCC 2001 (H), Candida krusei ATCC 6258 (I), Candida parapsilosis ATCC 22019 (J), Cryptococcus neoformans ATCC MYA-895 (M), Aspergillus terreus ATCC MYA-3633 (N), and Aspergillus flavus ATCC MYA-3631 (0) were obtained from the American Type Culture Collection (ATCC; Manassas, VA, USA). Aspergillus nidulans ATCC 38163 (P) was obtained from University of Kentucky. Clinically derived Aspergillus fumigatus NRRL 163 (Q), A. fumigatus NRRL 5109 (R), and A. fumigatus NRRL 6113 (S) were obtained from Northern Regional Research Laboratory (NRRL). Candida auris 384 (K), C. auris 390 (L), and fungal strains 381-400 (including 10 C. auris (AR Bank #381-390), 3 Candida duobushaemulonii (AR Bank #391, AR Bank #392, and AR Bank #394), 2 Candida haemulonii (AR Bank #393 and AR Bank #395), 1 Kodameae ohmeri (AR Bank #396), 1 C. krusei (AR Bank #397), 1 Candida lusitaniae (AR Bank #398), and 2 Saccharomyces cerevisiae strains (AR Bank #399 and AR Bank #400)) were part of a larger fungal library from the AR Bank maintained by the Centers for Disease Control and Prevention (CDC; Atlanta, GA, USA). Filamentous fungi and yeasts were cultivated at 35° C. in RPMI 1640 medium (with L-glutamine, without sodium bicarbonate, Sigma-Aldrich, St. Louis, MO) buffered to a pH of 7.0 with 0.165 M morpholinepropanesulfonic acid (MOPS) buffer (Sigma-Aldrich). For cytotoxicity assays, HepG2 and the mouse macrophage cell line J774A.1 were obtained from University of Kentucky. The human embryonic kidney cell line, HEK-293, was bought from the ATCC. Mammalian cells were grown in Dulbecco's Modified Eagle's Medium (DMEM) (from VWR) with 10% fetal bovine serum (FBS) (from VWR) and 1% Pen/Strep (from ATCC). Cell lines were cultured at 37° C. with 5% CO2 and passaged by trypsinization with 0.05% trypsin: 0.53 mM EDTA (from Sigma-Aldrich).
(§2) From the actively growing yeast culture, 100 µL were then transferred to 900 μL of RPMI 1640 medium and re-adjusted to achieve OD600 of 0.12 (˜1×10^6 CFU/mL). The cell suspension was further diluted to achieve 1:100 in RPMI 1640 medium.

[2] = tested on: C. auris strain AR Bank #390 (L); test: MIC determination by in vitro antifungal assay; type: cell-based, Candida auris; details: Candidozyma auris, C. auris AR Bank # 390 (L) (Table 2B); read-out: MIC
Description: as §1, §2
(§3) Finally, the activity of these monohydrazides was explored against […] non-Candida strains: Cryptococcus neoformans ATCC MYA-895 (M), Aspergillus terreus ATCC MYA-3633 (N), Aspergillus flavus ATCC MYA-3631 (O), Aspergillus nidulans ATCC 38163 (P), Aspergillus fumigatus NRRL 163 (Q), A. fumigatus NRRL 5109 (R), and A. fumigatus NRRL 6113 (S) (Tables 1A and 1B). The double dilution method was used with concentrations ranging from 0.06 to 31.3 j·tg mL^−1 for monohydrazides 1a-9j, and the commercially available positive antifungal control amphotericin B (AmB).

C. auris AR Bank #388 = test: MIC determination by in vitro antifungal assay; type: cell-based, Candida auris; details: Candidozyma auris; C. auris AR Bank # 388 (Table 2B); read-out: MIC
Description: as §1, §2

C. auris AR Bank #385 = test: MIC determination by in vitro antifungal assay; type: cell-based, Candida auris; details: Candidozyma auris; C. auris AR Bank # 385 (Table 2B); read-out: MIC
Description: as §1, §2

C. auris AR Bank #381 = test: MIC determination by in vitro antifungal assay; type: cell-based, Candida auris; details: Candidozyma auris; C. auris AR Bank # 381 (Table 2B); read-out: MIC
Description: as §1, §2

C. auris AR Bank #387 = test: MIC determination by in vitro antifungal assay; type: cell-based, Candida auris; details: Candidozyma auris; C. auris AR Bank # 387 (Table 2B); read-out: MIC
Description: as §1, §2

C. auris AR Bank #382 = test: MIC determination by in vitro antifungal assay; type: cell-based, Candida auris; details: Candidozyma auris; C. auris AR Bank # 382 (Table 2B); read-out: MIC
Description: as §1, §2

C. auris AR Bank #386 = test: MIC determination by in vitro antifungal assay; type: cell-based, Candida auris; details: Candidozyma auris; C. auris AR Bank # 386 (Table 2B); read-out: MIC
Description: as §1, §2

C. auris AR Bank #389 = test: MIC determination by in vitro antifungal assay; type: cell-based, Candida auris; details: Candidozyma auris; C. auris AR Bank # 389 (Table 2B); read-out: MIC
Description: as §1, §2

C. auris AR Bank #383 = test: MIC determination by in vitro antifungal assay; type: cell-based, Candida auris; details: Candidozyma auris; C. auris AR Bank # 383 (Table 2B); read-out: MIC
Description: as §1, §2

[3] = tested on: Candida auris strain AR Bank #384 (K); test: MIC determination by in vitro antifungal assay; type: cell-based; details: Candidozyma auris, C. auris AR Bank # 384 (K) (Table 2B); read-out: MIC
Description: as §1, §2, §3

With COc1cccc(NNC(=O)c2cccc(F)n2)c1 [Compound 5c] the MIC [1] was 0.12 to 7.8 µg/mL (≈ 0.459 to 29.9 µM), the MIC [2] was 3.9 µg/mL (≈ 14.9 µM) and the MIC (C. auris AR Bank #388) was 0.98 µg/mL (≈ 3.75 µM). For the same compound, the MIC (C. auris AR Bank #385) was 0.98 µg/mL (≈ 3.75 µM), the MIC (C. auris AR Bank #381) was 0.98 µg/mL (≈ 3.75 µM) and the MIC (C. auris AR Bank #387) was 0.49 µg/mL (≈ 1.88 µM). It also gave an MIC (C. auris AR Bank #382) of 0.49 µg/mL (≈ 1.88 µM), an MIC (C. auris AR Bank #386) of 0.98 µg/mL (≈ 3.75 µM) and an MIC (C. auris AR Bank #389) of 0.98 µg/mL (≈ 3.75 µM). It also gave an MIC (C. auris AR Bank #383) of 1.95 µg/mL (≈ 7.46 µM) and an MIC [3] of 0.49 µg/mL (≈ 1.88 µM).
